In patent publication US20220387362A1, “COMPOSITIONS COMPRISING A DHODH INHIBITOR FOR THE TREATMENT OF ACUTE MYELOID LEUKEMIA” (RHIZEN PHARMACEUTICALS AG, priority 2019, published 2022):
Like-named read-outs stand apart in the source and are kept apart here.

Tests used:
[1] = in combination with cyclosporine; cited from earlier work
[2] = tested on: AML cell line THP-1; experiment: Anti-proliferative effect in combination with gilteritinib (MTT assay); type: cell-based
Method: (§1) Compound A (at 3 μM) and Gilteritinib (0.25 μM) was tested in AML cell line THP-1. Cells were plated in 96-well plates and incubated with desired concentrations of Compound A for 72 h. At the end of the incubation period, MTT ((3-(4,5-dimethylthiazol-2-yl)-2,5-diphenyltetrazolium bromide)) was added. The plates were placed on a shaker for 5 min to mix the formazan and the optical density at 560 nm was measured on a spectrophotometer. Data were plotted using Graphpad prism for calculation of the percentage inhibition to determine the effect of Compound A as a single agent or in combination with gilteritinib.

[3] = tested on: AML cell line U937; experiment: as above; type: cell-based
Method: as §1, with “gilteritinib (1.5” for “Gilteritinib (0.25”, “U937.” for “THP-1.”

[4] = patients; cited from earlier work
[5] = tested on: CD11b expression in THP-1; experiment: CD11b cell surface expression (flow cytometry); type: cell-based; details: THP-1, 5 μM, 96 hours
Method: (§2) Cells were plated in complete media at pre-determined density in 6-well plates and the cells were treated with Compound A 96 hours for THP-1 cell lines and 72 hours for MV411 cell lines) in the presence or absence of uridine. The cells were stained with CD11b Antibody PE according to manufacturer's protocol (CD11b Monoclonal Antibody (ICRF44), PE, eBioscience) and the cells were acquired and analysed by flow cytometry (Guava Easycyte).

[6] = tested on: CD11b expression in MV411; experiment: CD11b cell surface expression (flow cytometry); type: cell-based; details: MV411, 3 μM, 72 hours
Method: as §2

[7] = tested on: AML cell lines (U937, HL-60, THP-1 and MV411); experiment: Anti-proliferative effect with uridine rescue, AML cell lines together (MTT assay); type: cell-based
Method: (§3) Compound A was tested in the absence of Uridine (U937, HL-60, THP-1 and MV411 cell lines) or in the presence of Uridine (100 μM for U937, HL-60 and MV411 and 300 μM for THP-1). Cells were plated in 96-well plates and incubated with desired concentrations of Compound A for 72 h. At the end of the incubation period, MTT ((3-(4,5-dimethylthiazol-2-yl)-2,5-diphenyltetrazolium bromide)) was added. The plates were placed on a shaker for 5 min to mix the formazan and the optical density at 560 nm was measured on a spectrophotometer. Data were plotted using Graphpad prism for calculation of the GI50 concentrations.

[8] = tested on: KG-1; experiment: Anti-proliferative effect in AML cell lines (MTT assay); type: cell-based; details: Homo sapiens, KG-1, 72 h
Method: as §3, with “across a panel” for “in the absence”, “AML cell lines” for “Uridine”, “THP-1, KG-1” for “THP-1”, “MV411).” for “MV411 cell lines) or in the presence of Uridine (100 μM for U937, HL-60 and MV411 and 300 μM for THP-1).”, “hours (h).” for “h.”

[9] = tested on: THP-1; experiment: as above; type: cell-based; details: Homo sapiens, THP-1, 72 h
Method: as §3, with “across a panel” for “in the absence”, “AML cell lines” for “Uridine”, “THP-1, KG-1” for “THP-1”, “MV411).” for “MV411 cell lines) or in the presence of Uridine (100 μM for U937, HL-60 and MV411 and 300 μM for THP-1).”, “hours (h).” for “h.”

[10] = tested on: U937; experiment: as above; type: cell-based; details: Homo sapiens, U-937, U937, 72 h
Method: as §3, with “across a panel” for “in the absence”, “AML cell lines” for “Uridine”, “THP-1, KG-1” for “THP-1”, “MV411).” for “MV411 cell lines) or in the presence of Uridine (100 μM for U937, HL-60 and MV411 and 300 μM for THP-1).”, “hours (h).” for “h.”

[11] = tested on: HL60; experiment: as above; type: cell-based; details: Homo sapiens, HL-60, HL60, 72 h
Method: as §3, with “across a panel” for “in the absence”, “AML cell lines” for “Uridine”, “THP-1, KG-1” for “THP-1”, “MV411).” for “MV411 cell lines) or in the presence of Uridine (100 μM for U937, HL-60 and MV411 and 300 μM for THP-1).”, “hours (h).” for “h.”

[12] = tested on: MV411; experiment: as above; type: cell-based; details: Homo sapiens, MV4-11, MV411, 72 h
Method: as §3, with “across a panel” for “in the absence”, “AML cell lines” for “Uridine”, “THP-1, KG-1” for “THP-1”, “MV411).” for “MV411 cell lines) or in the presence of Uridine (100 μM for U937, HL-60 and MV411 and 300 μM for THP-1).”, “hours (h).” for “h.”

[13] = tested on: CD11b mRNA expression in THP-1; experiment: CD11b mRNA expression in THP-1 cell lines (Real-Time PCR); type: cell-based; details: THP-1, 3 μM, 72 hours
Method: THP-1 cells were plated in complete media at pre-determined density in 6-well plates and the cells were treated with Compound A for 72 hours. mRNA was isolated using TRI reagent according to the manufacturer's protocol (TRI Reagent from Sigma). cDNA was synthesized using cDNA Synthesis kit according to manufacturer's protocol (First Strand cDNA Synthesis kit) and Real-Time PCR was performed. Data was calculated using delta delta Ct method. Fold change in mRNA expression was plotted using GraphPad Prism (Version 5.02)

[14] = tested on: AML cell lines (U937, HL-60, THP-1, KG-1 and MV411); experiment: Anti-proliferative effect across panel of AML cell lines (MTT assay); type: cell-based; details: U937, HL-60, THP-1, KG-1, MV411; 72 h; read-out: GI50 range over all AML cell lines tested
Method: as §3, with “across a panel” for “in the absence”, “AML cell lines” for “Uridine”, “THP-1, KG-1” for “THP-1”, “MV411).” for “MV411 cell lines) or in the presence of Uridine (100 μM for U937, HL-60 and MV411 and 300 μM for THP-1).”, “hours (h).” for “h.”

[15] = tested on: MV411 xenograft; experiment: MV411 mouse xenograft model; type: in vivo
Method: The effect of Compound A was determined in a MV411 mouse xenograft model. Briefly, 5×10^6 cells were injected into the right flank region by Subcutaneous administration under sterile condition. The oral administration of Compound (A) at 30 mg/kg/BID for 21 days. The tumors were measured using a calliper in two dimensions, length (a) and width (b). Tumor volumes were estimated from measurements of the two diameters of the individual tumors as follows: Tumor Volume (mm3)=(a×b2)/2. At the end of the study period, animals were sacrificed and the tumors harvested.

[16] = tested on: THP-1; experiment: Anti-proliferative effect with uridine rescue (MTT assay); type: cell-based; details: Homo sapiens, 72 h
Method: as §3

[17] = tested on: U937; experiment: as above; type: cell-based; details: Homo sapiens, U-937, 72 h
Method: as §3

[18] = tested on: MV411; experiment: as above; type: cell-based; details: Homo sapiens, MV4-11, 72 h
Method: as §3

[19] = tested on: HL-60; experiment: as above; type: cell-based; details: Homo sapiens, 72 h
Method: as §3

[20] = Homo sapiens, THP-1, 72 h, Compound A 3 μM, Gilteritinib 0.25 μM, read-out: % inhibition of cell growth
[21] = Homo sapiens, U-937, U937, 72 h, Compound A 3 μM, gilteritinib 1.5 μM, read-out: % inhibition of cell growth

Structure (SMILES): Cc1c(-c2ccc(-c3ccccc3F)cc2)nc2ccc(F)cc2c1C(=O)O [brequinar]
- toxic effects on oral administration [1]: toxic effects, including leukocytopenia and thrombocytopenia

Structure (SMILES): CCc1nc(C(N)=O)c(Nc2ccc(N3CCC(N4CCN(C)CC4)CC3)c(OC)c2)nc1NC1CCOCC1 [Gilteritinib, reference compound]
- inhibition at 0.25 µM [2, 20]: 40.1%
- inhibition at 1.5 µM [3, 21]: 41.7%

Structure (SMILES): Cc1oncc1C(=O)Nc1ccc(C(F)(F)F)cc1 [leflunomide]
- half-life time [4]: approximately 2 weeks

Structure (SMILES): CCCCOc1cccc(-c2cc(F)c(NC(=O)c3ccccc3C(=O)O)c(Cl)c2)c1 [Compound A, 2-(3′-butoxy-3-chloro-5-fluorobiphenyl-4-ylcarbamoyl)benzoic acid]
- inhibition at 3 µM [2, 20]: 35.8%
- effect on activity of gilteritinib (cell growth inhibition) ([2]; THP-1, p<0.05): potentiated
- CD11b cell surface expression after addition of uridine ([5]; with uridine): 15%
- CD11b cell surface expression, % of cell population ([5]; without uridine): 40%
- CD11b cell surface expression, % of cell population [6]: 35%
- melting point: 128 to 130 °C
- GI50 ([7]; 100 μM or 300 μM uridine, read-out: GI50 over AML cell lines with addition of uridine): > 10 µM
- GI50 ([7]; U937, HL-60, THP-1, MV411, no uridine, read-out: GI50 range over AML cell lines, without uridine): 2 to 3.2 µM
- GI50 [8]: 7.6 µM
- GI50 [9]: 2.5 µM
- GI50 [10]: 2.4 µM
- GI50 [11]: 3.5 µM
- GI50 [12]: 2.5 µM
- inhibition at 3 µM [3, 21]: 41.4%
- effect on activity of gilteritinib (cell growth inhibition) ([3]; U937, p<0.05): potentiated
- induction of CD11b gene expression [13]: 80 fold
- GI50 [14]: 2.4 to 7.6 µM
- tumor growth inhibition ([15]; Compound A 30 mg/kg/BID oral 21 days, combination with cytarabine 20 mg/Kg): 37%
- adverse events or body weight changes ([15]; throughout the study period, MV411 xenograft mice): No adverse events or body weight changes were observed
- GI50 ([16]; THP-1, 300 μM uridine): > 10 µM
- GI50 ([16]; THP-1, absence of uridine): 2 µM
- GI50 ([17]; U937, 100 μM uridine): > 10 µM
- GI50 ([17]; U937, absence of uridine): 3.2 µM
- GI50 ([18]; MV411, 100 μM uridine): > 10 µM
- GI50 ([18]; MV411, absence of uridine): 2.6 µM
- GI50 ([19]; HL-60, 100 μM uridine): > 10 µM
- GI50 ([19]; HL-60, absence of uridine): 3.6 µM
